Test results published in the supplement of paper PMC10883282.
± gives the standard deviation of the averaged measurements.

Legend:
Experiment in all cases: relative viability vs DMSO control (72 h) (fraction); higher = more viable cells
A204 = system: A204
Summary of the method: (§1)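 Sarcoma cell lines were grown in 384-well plates seeded toward 80–90% confluence and exposed 24 h later to serially diluted compound. After 72 h at 37 °C and 5% CO2, with 0.1% DMSO vehicle and a 5 µM positive control on the plates, ATPLite was read. Relative viability, given as percent growth averaged over up to triplicate wells, was rescaled so that 1 is full and 0 is none.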

G401 = system: G401
Summary of the method: as §1

HS729 = system: HS729
Summary of the method: as §1

KHOS-240S = system: KHOS-240S
Summary of the method: as §1

MES-SA = system: MES-SA
Summary of the method: as §1

RD = system: RD
Summary of the method: as §1

SK-ES-1 = system: SK-ES-1
Summary of the method: as §1

SK-LMS-1 = system: SK-LMS-1
Summary of the method: as §1

SW1353 = system: SW1353
Summary of the method: as §1

SW872 = system: SW872
Summary of the method: as §1

SW982 = system: SW982
Summary of the method: as §1

VA-ES-BJ = system: VA-ES-BJ
Summary of the method: as §1

O=C1NC(=O)[C@@H](c2cn3c4c(cccc24)CCC3)[C@@H]1c1c[nH]c2ccccc12 [Tivantinib]
Conditions	relative viability
A204, 0.00017 µM	1.08 ± 0.042
A204, 0.00051 µM	1.05 ± 0.067
A204, 0.00152 µM	1.09 ± 0.078
A204, 0.00457 µM	1.11 ± 0.058
A204, 0.01372 µM	1.1 ± 0.079
A204, 0.04115 µM	1.07 ± 0.058
A204, 0.1235 µM	1.06 ± 0.052
A204, 0.3704 µM	1.05 ± 0.018
A204, 1.111 µM	0.455 ± 0.02
A204, 3.333 µM	0.439 ± 0.051
A204, 10 µM	0.331 ± 0.016
G401, 0.00017 µM	1 ± 0.029
G401, 0.00051 µM	1.01 ± 0.062
G401, 0.00152 µM	1.03 ± 0.023
G401, 0.00457 µM	1.03 ± 0.033
G401, 0.01372 µM	1.02 ± 0.042
G401, 0.04115 µM	0.982 ± 0.082
G401, 0.1235 µM	1.05 ± 0.015
G401, 0.3704 µM	0.941 ± 0.045
G401, 1.111 µM	0.573 ± 0.03
G401, 3.333 µM	0.534 ± 0.011
G401, 10 µM	0.367 ± 0.025
HS729, 0.00017 µM	0.901 ± 0.067
HS729, 0.00051 µM	0.924 ± 0.024
HS729, 0.00152 µM	0.917 ± 0.065
HS729, 0.00457 µM	0.899 ± 0.041
HS729, 0.01372 µM	0.916 ± 0.06
HS729, 0.04115 µM	0.865 ± 0.04
HS729, 0.1235 µM	0.864 ± 0.044
HS729, 0.3704 µM	0.862 ± 0.035
HS729, 1.111 µM	0.599 ± 0.041
HS729, 3.333 µM	0.621 ± 0.017
HS729, 10 µM	0.564 ± 0.031
KHOS-240S, 0.00017 µM	1.03 ± 0.022
KHOS-240S, 0.00051 µM	1.03 ± 0.019
KHOS-240S, 0.00152 µM	1.05 ± 0.023
KHOS-240S, 0.00457 µM	1.04 ± 0.032
KHOS-240S, 0.01372 µM	1.05 ± 0.037
KHOS-240S, 0.04115 µM	1.01 ± 0.021
KHOS-240S, 0.1235 µM	0.983 ± 0.025
KHOS-240S, 0.3704 µM	0.791 ± 0.032
KHOS-240S, 1.111 µM	0.271 ± 0.012
KHOS-240S, 3.333 µM	0.25 ± 0.0098
KHOS-240S, 10 µM	0.176 ± 0.011
MES-SA, 0.00017 µM	0.9028 ± 0.0089
MES-SA, 0.00051 µM	0.908 ± 0.012
MES-SA, 0.00152 µM	0.92 ± 0.015
MES-SA, 0.00457 µM	0.919 ± 0.04
MES-SA, 0.01372 µM	0.914 ± 0.057
MES-SA, 0.04115 µM	0.888 ± 0.037
MES-SA, 0.1235 µM	0.919 ± 0.037
MES-SA, 0.3704 µM	0.406 ± 0.011
MES-SA, 1.111 µM	0.285 ± 0.009
MES-SA, 3.333 µM	0.205 ± 0.0074
MES-SA, 10 µM	0.1134 ± 0.00098
RD, 0.00017 µM	1.05 ± 0.01
RD, 0.00051 µM	1.09 ± 0.049
RD, 0.00152 µM	1.09 ± 0.036
RD, 0.00457 µM	1.1 ± 0.049
RD, 0.01372 µM	1.12 ± 0.02
RD, 0.04115 µM	1.04 ± 0.028
RD, 0.1235 µM	1.04 ± 0.042
RD, 0.3704 µM	0.81 ± 0.027
RD, 1.111 µM	0.371 ± 0.028
RD, 3.333 µM	0.219 ± 0.01
RD, 10 µM	0.267 ± 0.0046
SK-ES-1, 0.00017 µM	1.01 ± 0.074
SK-ES-1, 0.00051 µM	1.04 ± 0.028
SK-ES-1, 0.00152 µM	1 ± 0.076
SK-ES-1, 0.00457 µM	1.08 ± 0.034
SK-ES-1, 0.01372 µM	1.03 ± 0.03
SK-ES-1, 0.04115 µM	1.02 ± 0.092
SK-ES-1, 0.1235 µM	0.9862 ± 0.0084
SK-ES-1, 0.3704 µM	0.645 ± 0.025
SK-ES-1, 1.111 µM	0.0656 ± 0.0071
SK-ES-1, 3.333 µM	0.0193 ± 0.0038
SK-ES-1, 10 µM	0.0196 ± 0.00098
SK-LMS-1, 0.00017 µM	1 ± 0.021
SK-LMS-1, 0.00051 µM	1.01 ± 0.025
SK-LMS-1, 0.00152 µM	0.972 ± 0.03
SK-LMS-1, 0.00457 µM	1.002 ± 0.01
SK-LMS-1, 0.01372 µM	1 ± 0.04
SK-LMS-1, 0.04115 µM	0.965 ± 0.038
SK-LMS-1, 0.1235 µM	0.887 ± 0.016
SK-LMS-1, 0.3704 µM	0.5799 ± 0.0027
SK-LMS-1, 1.111 µM	0.497 ± 0.023
SK-LMS-1, 3.333 µM	0.385 ± 0.022
SK-LMS-1, 10 µM	0.301 ± 0.013
SW872, 0.00017 µM	0.993 ± 0.016
SW872, 0.00051 µM	0.973 ± 0.017
SW872, 0.00152 µM	1 ± 0.021
SW872, 0.00457 µM	0.996 ± 0.051
SW872, 0.01372 µM	0.979 ± 0.037
SW872, 0.04115 µM	1.008 ± 0.0033
SW872, 0.1235 µM	0.967 ± 0.013
SW872, 0.3704 µM	0.933 ± 0.021
SW872, 1.111 µM	0.473 ± 0.063
SW872, 3.333 µM	0.485 ± 0.038
SW872, 10 µM	0.467 ± 0.033
SW982, 0.00017 µM	1.05 ± 0.067
SW982, 0.00051 µM	1.04 ± 0.03
SW982, 0.00152 µM	1.04 ± 0.034
SW982, 0.00457 µM	1.07 ± 0.041
SW982, 0.01372 µM	1.06 ± 0.02
SW982, 0.04115 µM	1.04 ± 0.07
SW982, 0.1235 µM	1.03 ± 0.018
SW982, 0.3704 µM	0.766 ± 0.01
SW982, 1.111 µM	0.378 ± 0.017
SW982, 3.333 µM	0.272 ± 0.014
SW982, 10 µM	0.2611 ± 0.0019
SW1353, 0.00017 µM	0.982 ± 0.053
SW1353, 0.00051 µM	0.9442 ± 0.0082
SW1353, 0.00152 µM	0.985 ± 0.043
SW1353, 0.00457 µM	0.96 ± 0.034
SW1353, 0.01372 µM	0.99 ± 0.043
SW1353, 0.04115 µM	0.963 ± 0.032
SW1353, 0.1235 µM	0.955 ± 0.032
SW1353, 0.3704 µM	0.88 ± 0.018
SW1353, 1.111 µM	0.666 ± 0.017
SW1353, 3.333 µM	0.45 ± 0.014
SW1353, 10 µM	0.453 ± 0.018
VA-ES-BJ, 0.00017 µM	1.01 ± 0.043
VA-ES-BJ, 0.00051 µM	1.03 ± 0.039
VA-ES-BJ, 0.00152 µM	1.02 ± 0.052
VA-ES-BJ, 0.00457 µM	1.03 ± 0.053
VA-ES-BJ, 0.01372 µM	1.01 ± 0.075
VA-ES-BJ, 0.04115 µM	1.01 ± 0.047
VA-ES-BJ, 0.1235 µM	0.991 ± 0.092
VA-ES-BJ, 0.3704 µM	0.76 ± 0.025
VA-ES-BJ, 1.111 µM	0.464 ± 0.093
VA-ES-BJ, 3.333 µM	0.439 ± 0.067
VA-ES-BJ, 10 µM	0.397 ± 0.013
